Data from US20110059015A1, “VACCINE” (priority 2002, published 2011).

Test system: Fab S8-gp120 III-B binding
Experiment: Peptide inhibition of gp120-Fab S8 binding (ELISA)
Set-up: species or system HIV-1
Method: Peptides from selected phage clones were synthesised by Isogen (Maarssen, The Netherlands). For binding competition experiments, purified S8 Fab (1 μg/ml) was incubated (4° C., 4 h) with several dilutions of the corresponding peptide before addition to gp120III-B (2 μg/ml)-coated microtiter wells.

[1] = peptide 50 μg/ml (124R1: a similar concentration), Fab S8 1 μg/ml

Sequence: FLQPPDFSHLPP [Fab 124R1]
- inhibition of Fab S8-gp120 binding [1]: 15%

Sequence: GIQLANPPRLYG [Fab 124R9]
- inhibition of Fab S8-gp120 binding [1]: 50%

Sequence: LLADTTHHRPWT [Fab 124R4]
- inhibition of Fab S8-gp120 binding [1]: 50%

Sequence: QEVGKAMYAPPI [ENV-9, peptide corresponding to gp120 amino acid residues 428-439]
- inhibition of Fab S8-gp120 binding (peptide concentration not given): 50%
